According to paper PMC6969910, “Repurposing Dihydropyridines for Treatment of Helicobacter pylori Infection” (Pharmaceutics, 2019):
Converted amounts (≈) assume the structure as drawn. Like-named read-outs stand apart in the source and are kept apart here.

Key:
[1] = system: H. pylori ATCC 700392; assay: MIC/MBC by broth microdilution, strain ATCC 700392; assay type: cell-based; conditions: Helicobacter pylori, ATCC700392; for MBC: ATCC 700392; for MIC: ATCC 700392, 72 h
[2] = system: H. pylori ATCC 43504 (metronidazole-resistant); assay: MIC/MBC by broth microdilution, strain ATCC 43504 (MTZ-R); assay type: cell-based; conditions: Helicobacter pylori; for MBC: ATCC43504; for MIC: ATCC43504, 72 h
[3] = system: H. pylori ATCC 700684 (clarithromycin resistant); assay: MIC/MBC by broth microdilution, strain ATCC 700684 (CLR-R); assay type: cell-based; conditions: Helicobacter pylori; for MBC: ATCC700684; for MIC: ATCC700684, 72 h
[4] = target: T1, H. pylori HsrA response regulator (Helicobacter pylori, UniProt O25684); assay type: biochemical; conditions: EMSA; for Inhibition of the DNA binding activity of HsrA: 6 µM HsrA, 120 ng target promoter, 0.1 to 2 mM DHP
T1 sequence (O25684 entry or part of it): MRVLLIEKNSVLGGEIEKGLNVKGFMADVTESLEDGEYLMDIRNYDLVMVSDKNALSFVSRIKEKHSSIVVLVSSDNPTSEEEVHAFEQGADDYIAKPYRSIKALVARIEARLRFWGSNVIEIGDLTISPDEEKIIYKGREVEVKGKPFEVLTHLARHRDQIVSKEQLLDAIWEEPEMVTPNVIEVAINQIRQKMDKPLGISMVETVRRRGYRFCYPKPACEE
Protocol: The in vitro biological activity of the H. pylori HsrA response regulator and its potential inhibition by DHP drugs were assessed by electrophoretic mobility shift assay (EMSA) as previously described. Briefly, 120 ng of target DNA (promoter region of the H. pylori porGDAB operon) was mixed with 6 µM of recombinant HsrA [17] in the presence of increasing concentrations (0.1 to 2 mM) of selected DHP drugs. Mixtures of DNA and protein in a 20 μL reaction volume containing 10 mM bis-Tris (pH 7.5), 40 mM KCl, 100 mg/L BSA, 1 mM DTT and 5% glycerol were incubated at room temperature for 20 min and then separated by 6% native polyacrylamide gel electrophoresis. A 150 bp fragment of the Anabaena sp. PCC 7120 gene pkn22 was included as non-specific competitor DNA in all assays. EMSA gels were stained with SYBR Safe® (Thermo Fisher Scientific, Bothell, WA, USA) and analyzed using the Bio-Rad Gel Doc 2000 imaging system.

[5] = system: H. pylori ATCC 700684 (CLR-R); assay: Checkerboard assay with clarithromycin, strain ATCC 700684; assay type: cell-based, Helicobacter pylori
Protocol: (§1) Antibacterial synergies of selected DHPs in combination with first-line anti-H. pylori antibiotics were tested by the checkerboard assay. Using 96-well flat-bottom microtiter plates, we assayed the antibacterial effect of the interaction of a range of 2-fold dilutions of clarithromycin or metronidazole with a range of 2-fold dilutions of each selected DHP. Serial dilutions of both antimicrobials (antibiotic and DHP) were firstly prepared using two different sterile microtiter plates, one compound was diluted along the rows in a first plate, and the other compound was diluted along the columns of a second plate. Then, both gradients were mixed in a third microtiter plate and inoculated with a freshly prepared bacterial suspension of H. pylori at 2 × 10^6 CFU/mL in BHI+FBS. Plates were incubated for 48 h at 37 °C under microaerobic conditions. […] The interaction between drugs was determined by calculating the fractional inhibitory concentration index (FICI) as: FICA (MICA in the presence of B/MICA alone) + FICB (MICB in the presence of A/MICB alone).

[6] = target: T1, H. pylori HsrA response regulator; assay: biochemical; assay type: binding; conditions: for n (binding stoichiometry): absolute error 0.06; for ΔG: absolute error 0.2 kcal/mol; for ΔH: absolute error 0.4 kcal/mol
Protocol: Thermodynamic parameters of the molecular interaction between HsrA and its DHP-class inhibitors were analyzed by isothermal titration calorimetry (ITC) using an AutoiTC200 calorimeter (MicroCal, Malvern Instruments, Malvern, Worcestershire, UK). A solution of 20 µM of the protein in 50 mM Tris-HCl [pH 8], 150 mM NaCl, 10% glycerol, 1% DMSO was titrated with 200 µM of the corresponding ligand (DHP) dissolved in the same buffer at 25 °C. A total of 19 injections of 2 μL was added sequentially to the sample cell after 150 s spacing to ensure that the thermal power returned to the baseline before the next injection. Dissociation constants and binding enthalpies were calculated by non-linear least squares regression data analysis using the software package Origin 7.0 (OriginLab, Northampton, MA, USA).

[7] = system: Mouse; conditions: cited from earlier work
[8] = system: H. pylori strain ATCC 700684; assay: Time-kill kinetics assay; assay type: cell-based, Helicobacter pylori; conditions: 2 × MIC
Protocol: Time–kill curves for selected DHP drugs were determined using the H. pylori strain ATCC 700684 [17]. […] DMSO instead of drugs was included as control. Colony forming units (CFUs) were determined after 4, 8, and 24 h of drug exposition by culturing on Blood Agar Base No.2 supplemented with 8% defibrinated horse blood for 72 h under microaerobic conditions. Each determination was performed twice in triplicate and the results were presented as log10 CFU/mL versus incubation time. Statistical analysis was performed using the Mann–Whitney U test. A p value smaller than 0.05 was considered significant.

[9] = system: Mouse; assay: Mouse oral median lethal dose (LD50); assay type: in vivo; conditions: oral dose 100 mg/kg/day versus mouse oral LD50
[10] = system: H. pylori strain PMSS1; assay: H. pylori gastric colonization in C57BL/6 mice (bacterial counts and qPCR); assay type: in vivo, Helicobacter pylori (in C57BL/6 mice); conditions: PMSS1, oral 100 mg/kg/day marketed formulation + omeprazole 140 mg/kg/day, 7 days, vs infected non-treated
[11] = system: H. pylori ATCC 43504 (MTZ-R); assay: Checkerboard assay with metronidazole, strain ATCC 43504; assay type: cell-based, Helicobacter pylori
Protocol: as §1

[12] = target: T1, H. pylori HsrA response regulator; design: method as in PMID 31383920; conditions: previous work; cited from earlier work
[13] = system: different strains of H. pylori; design: method as in PMID 31383920; conditions: including metronidazole- and clarithromycin-resistant strains; cited from earlier work
[14] = ITC, 25 °C, pH 8, relative error 40%, read-out: Kd

Structure (SMILES) | MBC [1] | MIC [1] | MBC [2] | MIC [2] | MBC [3] | MIC [3] | Inhibition of the DNA binding activity of HsrA [4] | n (binding stoichiometry) ([6]; ITC, 25 °C, pH 8) | ΔG ([6]; ITC, 25 °C, pH 8) | ΔH ([6]; ITC, 25 °C, pH 8) | Inhibition of the biological activity of HsrA [12] | Bactericidal activity against different strains of H. pylori [13] | other results
CC[C@H]1OC(=O)[C@H](C)[C@@H](O[C@H]2C[C@@](C)(OC)[C@@H](O)[C@H](C)O2)[C@H](C)[C@@H](O[C@@H]2O[C@H](C)C[C@H](N(C)C)[C@H]2O)[C@](C)(OC)C[C@@H](C)C(=O)[C@H](C)[C@@H](O)[C@]1(C)O [Clarithromycin] | ≤ 0.12 µg/mL | ≤ 0.12 µg/mL | ≤ 0.12 µg/mL | ≤ 0.12 µg/mL | 32 µg/mL (≈ 42.8 µM) | 16 µg/mL (≈ 21.4 µM) | – | – | – | – | – | – | –
COC(=O)C1=C(C)NC(C)=C(C(=O)OC(C)(C)CN(C)CCC(c2ccccc2)c2ccccc2)C1c1cccc([N+](=O)[O-])c1 (stereo not shown) [Lercanidipine] | 8 µg/mL (≈ 13.1 µM) | 8 µg/mL (≈ 13.1 µM) | 64 µg/mL (≈ 105 µM) | 32 µg/mL (≈ 52.3 µM) | 8 µg/mL (≈ 13.1 µM) | 8 µg/mL (≈ 13.1 µM) | noticeably inhibited | 0.81 | -6.4 kcal/mol | -4.8 kcal/mol | – | – | FICantibiotic ([5]; clarithromycin in combination with DHP, ATCC 700684 (CLR-R)): 0.0625; Reduction of the MIC value of clarithromycin ([5]; in combination with DHP, ATCC 700684): up to 16 times; Kd [6, 14]: 20 µM; Mouse LD50 (mg/kg, oral) [7]: 622 mg/kg
Cc1ncc([N+](=O)[O-])n1CCO [Metronidazole] | 2 µg/mL (≈ 11.7 µM) | 1 µg/mL (≈ 5.84 µM) | 128 µg/mL (≈ 748 µM) | 64 µg/mL (≈ 374 µM) | 2 µg/mL (≈ 11.7 µM) | 1 µg/mL (≈ 5.84 µM) | – | – | – | – | – | – | –
COC(=O)C1=C(C)NC(C)=C(C(=O)OC)C1c1ccccc1[N+](=O)[O-] [Nifedipine] | 8 µg/mL (≈ 23.1 µM) | 8 µg/mL (≈ 23.1 µM) | 16 µg/mL (≈ 46.2 µM) | 16 µg/mL (≈ 46.2 µM) | 8 µg/mL (≈ 23.1 µM) | 8 µg/mL (≈ 23.1 µM) | – | – | – | – | – | – | Decline in bacterial counts (time-kill kinetics) compared to other DHPs [8]: significantly slower
COCCOC(=O)C1=C(C)NC(C)=C(C(=O)OC(C)C)C1c1cccc([N+](=O)[O-])c1 (stereo not shown) [Nimodipine] | 8 µg/mL (≈ 19.1 µM) | 8 µg/mL (≈ 19.1 µM) | 32 µg/mL (≈ 76.5 µM) | 16 µg/mL (≈ 38.2 µM) | 4 µg/mL (≈ 9.56 µM) | 4 µg/mL (≈ 9.56 µM) | noticeably inhibited | 0.71 | -7.3 kcal/mol | -2.1 kcal/mol | – | – | Treatment dose, times lower than LD50 [9]: 9.4 times; H. pylori gastric colonization, bacterial counts (CFU/mg of stomach) [10]: significantly reduced; H. pylori gastric colonization, qPCR (bacteria per 10,000 murine cells) [10]: significantly reduced; Kd [6, 14]: 4.1 µM; Reduction of the MIC value of metronidazole ([11]; in combination with DHP, ATCC 43504): up to 8 times; FICantibiotic ([11]; metronidazole in combination with DHP, ATCC 43504 (MTZ-R)): 0.125; Mouse LD50 (mg/kg, oral) ([7]; ref PubChem): 940 mg/kg
COC(=O)C1=C(C)NC(C)=C(C(=O)OCC(C)C)C1c1ccccc1[N+](=O)[O-] (stereo not shown) [Nisoldipine] | 4 µg/mL (≈ 10.3 µM) | 4 µg/mL (≈ 10.3 µM) | 16 µg/mL (≈ 41.2 µM) | 16 µg/mL (≈ 41.2 µM) | 4 µg/mL (≈ 10.3 µM) | 4 µg/mL (≈ 10.3 µM) | noticeably inhibited | 0.70 | -6.8 kcal/mol | -2.2 kcal/mol | – | – | Inhibition of HsrA activity at 100 μM ([4]; 100 μM drug, 6 μM HsrA): partially inhibited; Decline in bacterial counts (time-kill kinetics) compared to other DHPs [8]: significantly faster; Killing effect after 4 h of exposition ([8]; 4 h): completely lethal; Kd [6]: 11 µM; Mouse LD50 (mg/kg, oral) ([7]; ref PubChem): 411 mg/kg
CCOC(=O)C1=C(C)NC(C)=C(C(=O)OC)C1c1cccc([N+](=O)[O-])c1 (stereo not shown) [Nitrendipine] | 8 µg/mL (≈ 22.2 µM) | 8 µg/mL (≈ 22.2 µM) | 16 µg/mL (≈ 44.4 µM) | 16 µg/mL (≈ 44.4 µM) | 8 µg/mL (≈ 22.2 µM) | 8 µg/mL (≈ 22.2 µM) | noticeably inhibited | 0.75 | -6.9 kcal/mol | -2.6 kcal/mol | – | – | Treatment dose, times lower than LD50 [9]: 25.4 times; H. pylori gastric colonization, bacterial counts (CFU/mg of stomach) [10]: significantly reduced; H. pylori gastric colonization, qPCR (bacteria per 10,000 murine cells) [10]: significantly reduced; Kd [6]: 9 µM; Mouse LD50 (mg/kg, oral) ([7]; ref PubChem): 2540 mg/kg
O=c1cc(-c2ccc(O)cc2)oc2cc(O)cc(O)c12 [apigenin] | – | – | – | – | – | – | – | – | – | – | noticeably inhibited | strong bactericidal activities | –
O=c1cc(-c2ccccc2)oc2cc(O)cc(O)c12 [chrysin] | – | – | – | – | – | – | – | – | – | – | noticeably inhibited | strong bactericidal activities | –
COc1ccc([C@@H]2CC(=O)c3c(O)cc(O)cc3O2)cc1O [hesperetin] | – | – | – | – | – | – | – | – | – | – | noticeably inhibited | strong bactericidal activities | –
O=c1c(O)c(-c2ccc(O)cc2)oc2cc(O)cc(O)c12 [kaempferol] | – | – | – | – | – | – | – | – | – | – | noticeably inhibited | strong bactericidal activities | –
